Consider 5 molecules from patent US20220340629A1, “Myosin Derived Peptides and Related Compounds with Anticoagulant Activities” (THE SCRIPPS RESEARCH INSTITUTE, priority 0001, published 2022).

The target of data set [1] is phospholipid-supported prothrombin activation by factors Xa and Va (Homo sapiens, UniProt P00742). The experiment in a line: Assay 1C: phospholipid vesicle (PC/PS 80%/20%)-supported prothrombin activation. Format: biochemical.
Data set [2] is described as follows: Metabolite identification after incubation in mouse plasma. Conditions: incubated in mouse plasma, FIG. 8. Format: in vitro ADME.
The target of data set [3] is skeletal muscle myosin-supported prothrombin activation by factors Xa and Va (Homo sapiens, UniProt P00742). The experiment in a line: Assay 1A: prothrombin activation by factor Xa/factor Va/myosin in purified system. The class given is biochemical, human factors Xa and Va; rabbit skeletal muscle myosin.
Sequence of skeletal muscle myosin-supported prothrombin activation by factors Xa and Va (Homo sapiens, UniProt P00742) (P00742 41-179): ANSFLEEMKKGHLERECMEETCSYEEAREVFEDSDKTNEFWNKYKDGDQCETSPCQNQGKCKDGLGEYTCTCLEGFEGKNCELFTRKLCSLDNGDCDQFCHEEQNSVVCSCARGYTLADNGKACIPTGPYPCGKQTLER
Sequence of skeletal muscle myosin-supported prothrombin activation by factors Xa and Va (Homo sapiens, UniProt P00742) (P00742 235-488): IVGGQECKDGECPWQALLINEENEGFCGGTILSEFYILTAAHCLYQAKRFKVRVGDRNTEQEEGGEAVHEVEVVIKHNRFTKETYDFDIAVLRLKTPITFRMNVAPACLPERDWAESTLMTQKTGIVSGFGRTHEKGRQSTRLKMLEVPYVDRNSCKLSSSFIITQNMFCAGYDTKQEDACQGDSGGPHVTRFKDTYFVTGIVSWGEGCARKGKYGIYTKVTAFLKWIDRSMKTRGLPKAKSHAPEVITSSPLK
Sequence of skeletal muscle myosin-supported prothrombin activation by factors Xa and Va (Homo sapiens, UniProt P00742) (P12259 29-737 partner): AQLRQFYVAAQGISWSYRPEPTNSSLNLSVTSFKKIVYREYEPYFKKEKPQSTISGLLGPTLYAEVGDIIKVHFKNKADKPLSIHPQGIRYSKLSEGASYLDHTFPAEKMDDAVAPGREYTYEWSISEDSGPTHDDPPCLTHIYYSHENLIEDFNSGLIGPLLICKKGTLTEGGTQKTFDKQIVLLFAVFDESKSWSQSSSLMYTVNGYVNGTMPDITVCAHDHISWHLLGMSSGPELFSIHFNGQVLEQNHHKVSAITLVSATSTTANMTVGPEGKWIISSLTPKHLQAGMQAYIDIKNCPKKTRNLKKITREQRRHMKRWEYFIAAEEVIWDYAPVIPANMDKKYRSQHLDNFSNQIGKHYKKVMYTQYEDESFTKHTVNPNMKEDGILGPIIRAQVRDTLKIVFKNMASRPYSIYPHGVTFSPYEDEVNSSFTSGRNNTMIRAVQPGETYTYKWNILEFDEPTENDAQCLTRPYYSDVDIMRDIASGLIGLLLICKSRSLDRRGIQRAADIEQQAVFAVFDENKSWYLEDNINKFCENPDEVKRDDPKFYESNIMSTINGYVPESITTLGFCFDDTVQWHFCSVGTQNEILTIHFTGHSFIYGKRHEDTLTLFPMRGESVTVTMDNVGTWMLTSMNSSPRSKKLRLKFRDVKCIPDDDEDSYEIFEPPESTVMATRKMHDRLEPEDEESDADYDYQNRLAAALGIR
Sequence of skeletal muscle myosin-supported prothrombin activation by factors Xa and Va (Homo sapiens, UniProt P00742) (P12259 1574-2224 partner): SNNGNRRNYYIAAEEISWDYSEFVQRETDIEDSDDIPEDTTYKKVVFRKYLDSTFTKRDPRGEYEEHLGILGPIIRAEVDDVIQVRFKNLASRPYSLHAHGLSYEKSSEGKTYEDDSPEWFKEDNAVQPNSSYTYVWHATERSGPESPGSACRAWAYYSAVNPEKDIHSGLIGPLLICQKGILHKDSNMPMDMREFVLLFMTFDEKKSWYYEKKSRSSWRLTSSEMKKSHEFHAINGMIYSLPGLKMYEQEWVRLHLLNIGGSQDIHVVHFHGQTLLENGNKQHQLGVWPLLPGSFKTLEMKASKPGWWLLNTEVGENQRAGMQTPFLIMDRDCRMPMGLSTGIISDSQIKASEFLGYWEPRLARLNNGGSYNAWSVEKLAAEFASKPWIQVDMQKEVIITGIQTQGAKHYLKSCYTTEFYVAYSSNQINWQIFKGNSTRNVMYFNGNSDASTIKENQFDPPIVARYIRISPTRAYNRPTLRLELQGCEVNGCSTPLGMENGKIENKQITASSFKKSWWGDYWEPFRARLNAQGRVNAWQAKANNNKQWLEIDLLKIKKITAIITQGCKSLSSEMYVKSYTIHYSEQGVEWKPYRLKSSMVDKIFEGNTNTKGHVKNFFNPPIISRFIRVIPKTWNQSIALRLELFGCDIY
Data set [4] has as its system thrombin generation in human whole blood. The data set can be described thus: Assay 4: thrombin generation in recalcified human whole blood. Format: biochemical. Here is the method:
In addition to purified protein system and human plasma, assays using whole blood (Assay 4) were also performed to examine anti-coagulant activities of the peptides and derivative compounds. In these assays, freshly drawn anticoagulated human whole blood (80 μL aliquot) was incubated with peptide in DMSO or DMSO alone (control) for 5 min at 37° C. Then, fluorogenic thrombin substrate solution (Z-Gly-Gly-Arg-AMC) (I-1140) with 10 mmol/L CaCl2 (final) alone was added to the reaction mixture (total 110 μl) in 96 well plate to initiate coagulation. Thrombin generation was followed continuously for 25 min using SPECTRAmax GEMINI XS fluorometer (Molecular Devices, Sunnyvale, Calif.) with excitation and emission wavelengths set at 360 and 460 nm, respectively. The first derivative of fluorescence versus time was used to produce thrombin generation curves with the correction for substrate consumption and inner filter effect. IC50 were determined using a curve fit program in Prism7.0 (GraphPad Software, San Diego, Calif.).

Data set [5] concerns thrombin generation in human platelet poor plasma with skeletal muscle myosin. The data set can be described thus: Assay 2A: thrombin generation, recalcification of human platelet poor plasma + myosin. The class given is biochemical. Put shortly: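 Pooled normal human platelet-poor plasma (30%) preincubated 5 min at 37° C with 50 nM skeletal muscle myosin and peptide in DMSO. Coagulation triggered with 10 mmol/L CaCl2 plus fluorogenic Z-Gly-Gly-Arg-AMC; thrombin generation followed 25 min (ex 360/em 460 nm). IC50 = peptide concentration giving 50% inhibition of thrombin generation.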

Data set [6] has as its target T1, cardiac myosin-enhanced prothrombin activation by factors Xa and Va (Homo sapiens, UniProt P00742).
T1 construct: factor Va (5 nM, final) and factor Xa (0.2 nM, final)
The experiment in a line: Cardiac myosin-enhanced prothrombin activation. The class given is biochemical. To be noted: peptide 0 to 12.5 μM, cardiac myosin 2 nM, FIG. 17. Here is the method: Varying concentrations of peptide HC796-835 (SEQ ID NO:21), ranging from 0 to 12.5 μM, were incubated with factor Va (5 nM, final) and factor Xa (0.2 nM, final) in Tris buffered saline containing bovine serum albumin (TBSA) plus 5 mM CaCl2 at room temperature in the presence of cardiac myosin (2 nM, final). Thrombin generation was initiated by the addition of prothrombin (0.75 μM) in TB SA containing 5 mM CaCl2. The reaction was quenched by adding EDTA (10 mM final) at 10 min. The rate of thrombin formation was quantified by measuring thrombin concentration as the rate of thrombin substrate hydrolysis. 100% was the value for controls in the absence of added peptides. Each value represents the mean [±SEM] of triplicate determinations.

For data set [7], the system named is thrombin generation in human plasma. The data set can be described thus: Thrombin generation assay in pooled normal human plasma (Examples 3 and 4). The class given is biochemical. Here is the method: Thrombin generation assay in pooled human plasma: The effect of synthetic peptides on thrombin generation in pooled normal human plasma (George King Bio-medical, Inc., Overland Park, KS) was tested as described (1,11). Briefly, normal human plasma (30 μl) was mixed with CTI, followed by the addition of peptide. Then, tissue factor (TF) (Innovin) (0.5[…] pM final) containing 30 mM Ca^++ in TBSA with fluorogenic thrombin substrate solution (I-1140) (Bachem Americas, Inc., Torrance, Calif.) were added to the plasma to initiate coagulation activation. The first derivative of the time course data for substrate hydrolysis yielded the thrombin generation curve, allowing measurement of thrombin generation during the initiation, propagation and termination phases of thrombin generation and the value for peak thrombin generated.

Data set [8] concerns the target factor Xa (Homo sapiens, UniProt P00742). The experiment in a line: Factor Xa peptide binding assay (immobilized peptide). To be noted: FIG. 2C; read-out: apparent Kd, factor Xa binding to immobilized peptide. Here is the method:
Factor Xa Peptide Binding Assays: Peptide HC796-835 at 10 μg/mL in sodium bicarbonate (pH 9.3) was coated onto the wells of microtiter plates and then blocked with 5% fatty acid free BSA in TBS. After washing the plate with TBSA containing 5 mM CaCl2, various concentrations of factor Xa in binding buffer consisting of TBSA containing 5 mM CaCl2 were incubated in plate wells for 1 h at room temperature. Following 3 washings, bound factor Xa was detected by adding chromogenic substrate for factor Xa (S2222, Chromogenix, Franklin, Ohio). The absorbance values observed for triplicate noncoated wells lacking peptides served as nonspecific controls for binding and were subtracted from observed values for corresponding duplicate peptide-coated wells. Nonspecific binding of Factor Xa ranged from 5 to 20% of total observed binding in various experiments.
Statistical analysis: Apparent Kd values using saturation binding curve fit were performed using Prism™ 7.0 software (Graph Pad Software Inc., San Diego, Calif.).

The subject of data set [9] is skeletal muscle myosin-supported prothrombin activation by factors Xa and Va. The experiment in a line: Assay 1A: prothrombin activation by factor Xa/factor Va/myosin in purified system. The class given is biochemical, human factors Xa and Va; rabbit skeletal muscle myosin.
The target of data set [10] is T2, Human factor Xa (human, UniProt P00742 41-179; P00742 235-488, limits assumed). The experiment in a line: cell-based or functional assay.
T2 sequence (P00742 41-179 limits assumed, form in doubt, chain 1 of 2): as the sequence (P00742 41-179) above
T2 sequence (P00742 235-488 limits assumed, form in doubt, chain 2 of 2): as the sequence (P00742 235-488) above
Data set [11] has as its target T2, Human factor Xa. The data set can be described thus: cell-based or functional assay. This is another data set of the same source.
[12] abbreviates: purified system, skeletal muscle myosin, factor Va 5 nM, factor Xa 0.2 nM, prothrombin 0.75 μM, 10 min, read-out: 1A (+myosin).
Where [13] appears, read: human platelet poor plasma 30%, myosin 50 nM, CaCl2 10 mmol/L, read-out: 2A (recalcification +myosin).

Where two headings read alike, the source gives them in different places. Non-standard residues stand in square brackets, D forms with d. Residues, ends and D or L forms follow the SMILES beside them. No end group written: not given here. *: point of attachment. Arachidoyl = CCCCCCCCCCCCCCCCCCCC(=O)*; NMeN = CN[C@@H](CC(N)=O)C(=O)O; Nle = CCCC[C@H](N)C(=O)O

Sequence of phospholipid-supported prothrombin activation by factors Xa and Va (P00742 41-179 limits assumed): as the sequence (P00742 41-179) above
Sequence of phospholipid-supported prothrombin activation by factors Xa and Va (P00742 235-488 limits assumed): as the sequence (P00742 235-488) above
T1 sequence (P00742 41-179 limits assumed): as the sequence (P00742 41-179) above
T1 sequence (P00742 235-488 limits assumed): as the sequence (P00742 235-488) above

Turning to `CC[C@H](C)[C@H](NC(=O)[C@H](C)N)C(=O)N[C@@H](Cc1ccccc1)C(=O)N[C@@H](CS)C(=O)N[C@H](C(=O)N[C@@H](CCC(N)=O)C(=O)N[C@@H](Cc1ccc(O)cc1)C(=O)N[C@@H](CC(N)=O)C(=O)N[C@H](C(=O)N[C@@H](CCCNC(=N)N)C(=O)N[C@@H](CO)C(=O)N[C@@H](Cc1ccccc1)C(=O)N[C@@H](CCSC)C(=O)N[C@@H](CC(N)=O)C(=O)N[C@H](C(=O)N[C@@H](CCCCN)C(=O)N[C@@H](Cc1c[nH]cn1)C(=O)N[C@@H](Cc1c[nH]c2ccccc12)C(=O)N1CCC[C@H]1C(=O)N[C@@H](Cc1c[nH]c2ccccc12)C(=O)N[C@@H](CCSC)C(=O)N[C@@H](CCCCN)C(N)=O)C(C)C)[C@@H](C)CC)[C@@H](C)CC` [HC060] (H-AIFCIQYNIRSFMNVKHWPWMK-NH2), the “1C (+phospholipid)” value in data set [1] (phospholipid vesicle 4 μM, PS 20%/PC 80%, result in words) was “No activity”. Moreover, the “sites of protease cleavage identified from metabolite identification” value in data set [2] is on record as “six”. Further, the IC50 in data set [3] (setting [12]) is 1100 nM.
For the molecule `CCCC[C@H](NC(=O)[C@H](Cc1c[nH]c2ccccc12)NC(=O)[C@@H]1CCCN1C(=O)[C@H](Cc1c[nH]c2ccccc12)NC(=O)[C@H](Cc1c[nH]cn1)NC(=O)[C@H](CCCCN)NC(=O)[C@@H](NC(=O)[C@H](CC(N)=O)NC(=O)[C@H](CCCC)NC(=O)[C@H](Cc1ccccc1)NC(=O)[C@H](CO)NC(=O)[C@H](CCCNC(=N)N)NC(=O)[C@@H](NC(=O)[C@H](CC(N)=O)NC(=O)[C@H](Cc1ccc(O)cc1)NC(=O)[C@H](CCC(N)=O)NC(=O)[C@@H](NC(=O)[C@@H](NC(=O)[C@H](Cc1ccccc1)NC(=O)[C@@H](NC(=O)[C@H](C)N)[C@@H](C)CC)[C@@H](C)O)[C@@H](C)CC)[C@@H](C)CC)C(C)C)C(=O)N[C@@H](CCCCN)C(N)=O` [HC179] (H-AIFTIQYNIRSF[Nle]NVKHWPW[Nle]K-NH2; N-terminus assumed), the “4 (recalcification), result in words” value in data set [4] (result in words) is recorded as “No activity”. Besides, the IC50 in data set [5] (setting [13]) was determined as 8300 nM; in data set [3] (setting [12]) it was 400 nM.
As to `CC[C@H](C)[C@H](NC(=O)[C@H](C)NC(=O)[C@H](CCC(=O)O)NC(=O)[C@H](CCCNC(=N)N)NC(=O)[C@H](CCCNC(=N)N)NC(=O)[C@H](CCC(=O)O)NC(=O)[C@@H](NC(=O)[C@H](CCSC)NC(=O)[C@H](CCCNC(=N)N)NC(=O)[C@H](CCC(N)=O)NC(=O)[C@H](Cc1ccc(O)cc1)NC(=O)[C@H](CCC(=O)O)NC(=O)[C@@H](NC(=O)[C@H](CCCNC(=N)N)NC(=O)[C@H](C)NC(=O)[C@H](CC(C)C)NC(=O)[C@H](Cc1ccccc1)NC(=O)CNC(=O)[C@H](CCCNC(=N)N)NC(=O)[C@H](CS)NC(=O)[C@H](CCCNC(=N)N)NC(=O)[C@H](C)N)C(C)C)C(C)C)C(=O)N[C@@H](Cc1ccccc1)C(=O)N[C@@H](CS)C(=O)N[C@H](C(=O)N[C@@H](CCC(N)=O)C(=O)N[C@@H](Cc1ccc(O)cc1)C(=O)N[C@@H](CC(N)=O)C(=O)N[C@H](C(=O)N[C@@H](CCCNC(=N)N)C(=O)N[C@@H](CO)C(=O)N[C@@H](Cc1ccccc1)C(=O)N[C@@H](CCSC)C(=O)N[C@@H](CC(N)=O)C(=O)N[C@H](C(=O)N[C@@H](CCCCN)C(=O)N[C@@H](Cc1c[nH]cn1)C(=O)N[C@@H](Cc1c[nH]c2ccccc12)C(=O)N1CCC[C@H]1C(=O)N[C@@H](Cc1c[nH]c2ccccc12)C(N)=O)C(C)C)[C@@H](C)CC)[C@@H](C)CC` [HC796-835] (H-ARCRGFLARVEYQRMVERREAIFCIQYNIRSFMNVKHWPW-NH2), the “inhibition of cardiac myosin-enhanced prothrombin activation” value in data set [6] is on record as “inhibition”. The IC50 in data set [7] (FIG. 3B, peptide 0-25 μM, read-out: IC50, inhibition of thrombin generation in plasma) was about 5500 nM; in [5] (human plasma, recalcification, myosin present, read-out: 2A (recalcification +myosin) IC50) it was 3800 nM; in data set [3] (FIG. 5, read-out: IC50, prothrombin activation by factor Xa/factor Va/myosin in purified system), 1300 nM; in data set [9] (dose-dependency assays, FIG. 2A, myosin 2 nM, read-out: IC50, inhibition of myosin-supported prothrombin activation), 1200 nM. For the same molecule, the “inhibition of thrombin generation in human plasma” value in data set [7] (screened at 25 μM, FIG. 3A) is “significantly inhibited”. Moreover, the Kd in data set [8] stood at 1400 nM. Moreover, the “4 (recalcification) IC50” value in data set [4] (recalcification) is “No activity”. For the same molecule, the “inhibitory effects on phospholipid-supported prothrombin activation” value in data set [1] (compared with effects on myosin-supported prothrombin activation) was “not apparent”. Further, the “1C (+phospholipid)” value in data set [1] (purified system, phospholipid vesicles) is given as “No activity”. Further, the “inhibition of myosin-supported prothrombin activation at 5 μM” value in [9] (peptide 5 μM, FIG. 1A) is on record as “inhibitory, to varying degrees”. In data set [9] (peptide 100 μM, FIG. 1A), the “inhibition of myosin-supported prothrombin activation at 100 μM” value is recorded as “inhibited”.
Regarding `CCCCCCCCCCCCCCCCCCCC(=O)NCCCC[C@H](NC(=O)[C@H](CCCNC(=N)N)NC(=O)[C@@H](NC(=O)[C@H](CC(N)=O)NC(=O)[C@H](Cc1ccc(O)cc1)NC(=O)[C@H](CCC(N)=O)NC(=O)[C@@H](NC(=O)[C@H](CO)NC(=O)[C@H](Cc1ccccc1)NC(=O)[C@@H](NC(=O)[C@H](C)N)[C@@H](C)CC)[C@@H](C)CC)[C@@H](C)CC)C(=O)N[C@@H](Cc1ccccc1)C(=O)N[C@@H](CCCC)C(=O)N(C)[C@@H](CC(N)=O)C(=O)N[C@H](C(=O)N[C@@H](CCCCN)C(=O)N[C@@H](Cc1c[nH]cn1)C(=O)N[C@@H](Cc1c[nH]c2ccccc12)C(=O)N1CCC[C@H]1C(=O)N[C@@H](Cc1c[nH]c2ccccc12)C(=O)N[C@@H](CCCC)C(=O)N[C@@H](CCCCN)C(=O)N[C@@H](CCCCN)C(=O)N[C@@H](CCCCN)C(=O)N[C@@H](CCCCN)C(=O)N[C@@H](CCCCN)C(N)=O)C(C)C` [SL-1504-074A, AIFSIQYNIRXF(Nle)(N-MeN)VKHWPW(Nle)KKKKK] (H-AIFSIQYNIRK(Arachidoyl)F[Nle][NMeN]VKHWPW[Nle]KKKKK-NH2), the IC50 is 300 to 4000 nM in data set [4] (CaCl2 10 mmol/L, read-out: 4 (recalcification)) and 1700 nM in [5] (setting [13]).
Regarding ARCRGFLARVEYQRMVERREAIFCIQYNIRSFMNVKHWPW-NH2 (cysteine pairing not given here, Synthetic 40-mer; also called HC061) [Peptide HC796-835 (human skeletal muscle myosin heavy chain MYH2 residues 796-835)], the “IC50, inhibition of myosin-supported prothrombin activation by purified factor Xa, factor Va and Ca++ ions” value in [10] came out at 1200 nM. For the same molecule, in [11], the “IC50, Assay 1A (+myosin): prothrombin activation by factor Xa/factor Va/myosin in purified system” value was 1300 nM.
